Test: xn = mol fraction of the nth substance listed

CCCC(=O)O + CCC(C)=O
viscosity [mPa·s], 101 kPa
Conditions	x2 = 0.1024	x2 = 0.2043	x2 = 0.3057	x2 = 0.4065	x2 = 0.5067	x2 = 0.6064	x2 = 0.7056	x2 = 0.8043	x2 = 0.9024
293.15 K	1.383	1.236	1.1	0.9737	0.8582	0.7526	0.6569	0.571	0.4948
303.15 K	1.2	1.078	0.9646	0.8589	0.761	0.6716	0.5897	0.515	0.4485
313.15 K	1.021	0.9263	0.8368	0.7525	0.6733	0.5989	0.5293	0.4645	0.4044

COCCO + CC#N
298 K, 101.33 kPa
Conditions	viscosity [mPa·s]
x1 = 0.097	0.391
x1 = 0.1987	0.455
x1 = 0.2949	0.529
x1 = 0.404	0.631
x1 = 0.4985	0.736
x1 = 0.5987	0.866
x1 = 0.6932	0.991
x1 = 0.7991	1.171
x1 = 0.9035	1.361

CCCC(=O)O + C1CCOC1
298.15 K, 101 kPa
Conditions	viscosity [mPa·s]
x2 = 0.1195	1.45
x2 = 0.234	1.43
x2 = 0.3437	1.34
x2 = 0.4489	1.212
x2 = 0.5499	1.068
x2 = 0.647	0.9205
x2 = 0.7403	0.7856
x2 = 0.8301	0.6588
x2 = 0.9166	0.545

CCCCBr + CC(C)CO
viscosity [mPa·s], 101.33 kPa
Conditions	x2 = 0.101	x2 = 0.2014	x2 = 0.308	x2 = 0.4025	x2 = 0.5066	x2 = 0.61	x2 = 0.7006	x2 = 0.8004	x2 = 0.8984
298.15 K	0.626	0.671	0.743	0.83	0.98	1.196	1.436	1.845	2.449
308.15 K	0.549	0.576	0.624	0.682	0.783	0.934	1.1	1.387	1.807
318.15 K	0.492	0.512	0.555	0.593	0.664	0.774	0.895	1.098	1.389

CCCCBr + CC(C)(C)O
viscosity [mPa·s], 101.33 kPa
Conditions	x2 = 0.0988	x2 = 0.197	x2 = 0.3014	x2 = 0.4101	x2 = 0.5017	x2 = 0.5982	x2 = 0.7029	x2 = 0.7982	x2 = 0.8931
298.15 K	0.597	0.612	0.643	0.692	0.798	0.926	1.148	1.509	2.232
303.15 K	0.564	0.576	0.602	0.642	0.736	0.839	1.018	1.302	1.841
308.15 K	0.534	0.54	0.563	0.598	0.679	0.763	0.909	1.134	1.543
313.15 K	0.508	0.511	0.529	0.557	0.632	0.7	0.817	0.995	1.311
318.15 K	0.494	0.482	0.497	0.521	0.581	0.638	0.737	0.882	1.127

CCCC(=O)O + ClC(Cl)(Cl)Cl
298.15 K, 101 kPa
Conditions	viscosity [mPa·s]
x1 = 0.08	0.911
x1 = 0.16	0.925
x1 = 0.24	0.945
x1 = 0.3	0.966
x1 = 0.54	1.079
x1 = 0.64	1.142
x1 = 0.72	1.201
x1 = 0.87	1.331
